In ChEMBL document CHEMBL1201862, “PubChem BioAssay data set” (2004):
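Test compounds were applied to cells in 96-well plates for 48 hours at 5 doses. GI50: concentration for 50% inhibition of growth.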 Activity calls are given as the source filed them. Cut-off read from the data, not from the text of the source: active = GI50 up to about 1.1 µM and inactive = higher.

Columns and labels:
Experiment in all cases: NCI tumour cell line growth inhibition, 48 h
SR = tested on: SR
UACC-257 = tested on: UACC-257
IGROV-1 = tested on: IGROV-1
BT-549 = tested on: BT-549
MDA-N = tested on: MDA-N
LOX IMVI = tested on: LOX IMVI
NCI-H226 = tested on: NCI-H226
UACC-62 = tested on: UACC-62
SK-MEL-28 = tested on: SK-MEL-28
OVCAR-5 = tested on: OVCAR-5
HCC 2998 = tested on: HCC 2998
HOP-62 = tested on: HOP-62
MDA-MB-435 = tested on: MDA-MB-435
HL-60 = tested on: HL-60
NCI/ADR-RES = tested on: NCI/ADR-RES
NCI-H23 = tested on: NCI-H23
HCT-116 = tested on: HCT-116
EKVX = tested on: EKVX
SN12C = tested on: SN12C
A498 = tested on: A498
KM12 = tested on: KM12
SF-295 = tested on: SF-295
OVCAR-3 = tested on: OVCAR-3
MCF7 = tested on: MCF7
MOLT-4 = tested on: MOLT-4
CAKI-1 = tested on: CAKI-1
K562 = tested on: K562
TK-10 = tested on: TK-10
HCT-15 = tested on: HCT-15
HOP-92 = tested on: HOP-92
T47D = tested on: T47D
OVCAR-4 = tested on: OVCAR-4
UO-31 = tested on: UO-31
A549 = tested on: A549
SK-OV-3 = tested on: SK-OV-3
OVCAR-8 = tested on: OVCAR-8
SNB-19 = tested on: SNB-19
DU-145 = tested on: DU-145
SK-MEL-2 = tested on: SK-MEL-2
CCRF-CEM = tested on: CCRF-CEM
SK-MEL-5 = tested on: SK-MEL-5
COLO 205 = tested on: COLO 205
SW-620 = tested on: SW-620
U-251 = tested on: U-251
NCI-H460 = tested on: NCI-H460
PC-3 = tested on: PC-3
M14 = tested on: M14
SNB-75 = tested on: SNB-75
RPMI-8226 = tested on: RPMI-8226
786-0 = tested on: 786-0
ACHN = tested on: ACHN
RXF 393 = tested on: RXF 393
Malme-3M = tested on: Malme-3M
NCI-H522 = tested on: NCI-H522
SF-268 = tested on: SF-268
HT-29 = tested on: HT-29
Hs-578T = tested on: Hs-578T
SF-539 = tested on: SF-539

Measured: GI50

CCCCc1ccc(-n2sc3ncc(-c4ccccc4)cc3c2=O)cc1
> 100 µM: HCT-15
inactive: SR > 100 µM | UACC-257 > 10 µM | IGROV-1 > 100 µM | BT-549 59.6 µM | MDA-N > 100 µM | LOX IMVI > 100 µM | NCI-H226 > 100 µM | UACC-62 > 100 µM | SK-MEL-28 > 100 µM | OVCAR-5 > 100 µM | HCC 2998 > 100 µM | HOP-62 > 100 µM | MDA-MB-435 > 100 µM | HL-60 > 100 µM | NCI/ADR-RES > 100 µM | NCI-H23 > 100 µM | HCT-116 > 100 µM | EKVX > 100 µM | SN12C > 100 µM | A498 > 100 µM | KM12 > 100 µM | SF-295 > 100 µM | OVCAR-3 > 100 µM | MCF7 > 100 µM | MOLT-4 > 100 µM | CAKI-1 64.3 µM | K562 > 100 µM | TK-10 > 100 µM | HOP-92 > 100 µM | T47D 22.6 µM | OVCAR-4 42.1 µM | UO-31 > 100 µM | A549 > 100 µM | SK-OV-3 > 100 µM | OVCAR-8 43.2 µM | SNB-19 > 100 µM | DU-145 > 100 µM | SK-MEL-2 > 100 µM | CCRF-CEM > 100 µM | SK-MEL-5 > 100 µM | COLO 205 > 100 µM | SW-620 > 100 µM | U-251 > 100 µM | NCI-H460 > 100 µM | PC-3 > 100 µM | M14 > 100 µM | SNB-75 > 100 µM | RPMI-8226 > 100 µM | 786-0 > 100 µM | ACHN > 100 µM | RXF 393 > 100 µM

O=c1c(Nc2ccccc2)cn(CCOc2ccccc2)c(=O)n1CCOc1ccccc1
inactive: SR > 100 µM | UACC-257 83.2 µM | IGROV-1 36.3 µM | BT-549 20.8 µM | MDA-N > 100 µM | Malme-3M 79.6 µM | LOX IMVI > 100 µM | UACC-62 41.2 µM | SK-MEL-28 > 100 µM | OVCAR-5 57.5 µM | HCC 2998 63.1 µM | HOP-62 17.2 µM | MDA-MB-435 > 100 µM | HL-60 > 100 µM | NCI/ADR-RES 47.2 µM | NCI-H23 33.4 µM | HCT-116 > 100 µM | EKVX 33.1 µM | SN12C > 100 µM | A498 > 100 µM | NCI-H522 29.1 µM | KM12 > 100 µM | SF-295 52.5 µM | SF-268 16.5 µM | OVCAR-3 35.9 µM | MCF7 > 100 µM | HT-29 > 100 µM | MOLT-4 > 100 µM | CAKI-1 81.7 µM | K562 > 100 µM | HOP-92 35.6 µM | OVCAR-4 19.8 µM | UO-31 44.4 µM | A549 91.8 µM | Hs-578T 17.6 µM | SNB-19 31.5 µM | DU-145 53 µM | CCRF-CEM > 100 µM | SK-MEL-5 47.9 µM | COLO 205 69.3 µM | SW-620 > 100 µM | U-251 > 100 µM | NCI-H460 > 100 µM | PC-3 34.8 µM | M14 70.5 µM | RPMI-8226 > 100 µM | 786-0 28.2 µM | ACHN 37.7 µM | RXF 393 48.4 µM
> 100 µM: HCT-15

Cc1cn(C2CC(ON3C(=O)c4ccccc4C3=O)C(CO)O2)c(=O)[nH]c1=O (stereo unspecified)
inactive: SR > 10 µM | UACC-257 > 10 µM | IGROV-1 > 10 µM | BT-549 > 10 µM | Malme-3M > 10 µM | LOX IMVI > 10 µM | NCI-H226 > 10 µM | UACC-62 > 10 µM | OVCAR-5 > 10 µM | HCC 2998 > 10 µM | MDA-MB-435 > 10 µM | HL-60 > 10 µM | NCI/ADR-RES > 10 µM | NCI-H23 > 10 µM | HCT-116 > 10 µM | EKVX > 10 µM | SN12C > 10 µM | NCI-H522 > 10 µM | KM12 > 10 µM | SF-295 > 10 µM | SF-268 > 10 µM | OVCAR-3 > 10 µM | MCF7 > 10 µM | HT-29 > 10 µM | SF-539 > 10 µM | MOLT-4 > 10 µM | K562 > 10 µM | TK-10 > 10 µM | OVCAR-4 > 10 µM | UO-31 > 10 µM | A549 > 10 µM | SK-OV-3 > 10 µM | OVCAR-8 > 10 µM | Hs-578T > 10 µM | SNB-19 > 10 µM | DU-145 > 10 µM | SK-MEL-2 > 10 µM | CCRF-CEM > 10 µM | SW-620 > 10 µM | U-251 > 10 µM | NCI-H460 > 10 µM | PC-3 > 10 µM | M14 > 10 µM | SNB-75 > 10 µM | 786-0 > 10 µM | ACHN > 10 µM | RXF 393 > 10 µM
> 10 µM: HCT-15
active: HOP-92 0.855 µM
